Measured values reported in patent publication US9790178B2, “Pyrrolidinyl urea, thiourea, guanidine and cyanoguanidine compounds as TrkA kinase inhibitors” (Array BioPharma Inc., priority 2012, dated 2017).

What was measured:
Assay in all cases: KinaseProfiler off-target kinase profiling
Assay type in all cases: biochemical
Conditions in all cases: 10 μM, ATP near Km
[1] = target: T1, Plk2 (Homo sapiens, UniProt Q9NYY3)
T1 construct: purchased Millipore (KinaseProfiler service)
Method: (§1) A representative compound of the invention (Example 20) was tested for off-target kinase activity at a concentration of 10 μM by Millipore, Inc. in their KinaseProfiler™ service against all the kinases available in their full kinase panel. The compound was run in duplicate at a concentration of ATP near the Km for each individual kinase according to Millipore's specifications. The results are shown in Table B. Data are reported as percent of control (POC) and are the average of the two replicates.

[2] = target: T2, Plk3 (Homo sapiens, UniProt Q9H4B4)
T2 construct: purchased Millipore (KinaseProfiler service)
Method: as §1

[3] = target: T3, eEF-2K (Homo sapiens, UniProt O00418)
T3 construct: purchased Millipore, Inc. (KinaseProfiler service)
Method: as §1

[4] = target: T4, TAO3 (Homo sapiens, UniProt Q9H2K8)
T4 construct: purchased Millipore, Inc. (KinaseProfiler service)
Method: as §1

[5] = target: T5, CDK2/cyclinE (Homo sapiens, UniProt P24941)
T5 construct: purchased Millipore, Inc. (KinaseProfiler service)
Method: as §1

[6] = system: CK1_y
Method: as §1

[7] = target: T6, Flt4 (Homo sapiens, UniProt P35916)
T6 construct: purchased Millipore, Inc. (KinaseProfiler service)
Method: as §1

[8] = target: T7, PKCdelta (Homo sapiens, UniProt Q05655)
T7 construct: purchased Millipore, Inc. (KinaseProfiler service)
Method: as §1

[9] = target: T8, Abl2 (Homo sapiens, UniProt P42684)
T8 construct: purchased Millipore, Inc. (KinaseProfiler service)
Method: as §1

[10] = target: T9, Rsk2 (Homo sapiens, UniProt P51812)
T9 construct: purchased Millipore (KinaseProfiler service)
Method: as §1

[11] = target: T10, DRAK1 (Homo sapiens, UniProt Q9UEE5)
T10 construct: purchased Millipore, Inc. (KinaseProfiler service)
Method: as §1

[12] = target: T11, MRCKbeta (Homo sapiens, UniProt Q9Y5S2)
T11 construct: purchased Millipore, Inc. (KinaseProfiler service)
Method: as §1

[13] = target: T12, ULK3 (Homo sapiens, UniProt Q6PHR2)
T12 construct: purchased Millipore, Inc. (KinaseProfiler service)
Method: as §1

[14] = target: T13, Tie2 (Homo sapiens, UniProt Q02763)
T13 construct: purchased Millipore, Inc. (KinaseProfiler service)
Method: as §1

[15] = target: T14, Ron (Homo sapiens, UniProt Q04912)
T14 construct: purchased Millipore (KinaseProfiler service)
Method: as §1

[16] = target: T15, EphA4 (Homo sapiens, UniProt P54764)
T15 construct: purchased Millipore, Inc. (KinaseProfiler service)
Method: as §1

[17] = target: T16, Syk (Homo sapiens, UniProt P43405)
T16 construct: purchased Millipore, Inc. (KinaseProfiler service)
Method: as §1

[18] = target: T17, GRK6 (Homo sapiens, UniProt P43250)
T17 construct: purchased Millipore, Inc. (KinaseProfiler service)
Method: as §1

[19] = target: T18, LOK (Homo sapiens, UniProt O94804)
T18 construct: purchased Millipore, Inc. (KinaseProfiler service)
Method: as §1

[20] = target: T19, IGF-1R Activated (Homo sapiens, UniProt P08069)
T19 construct: purchased Millipore, Inc. (KinaseProfiler service)
Method: as §1

[21] = target: T20, Lyn (Homo sapiens, UniProt P07948)
T20 construct: purchased Millipore, Inc. (KinaseProfiler service)
Method: as §1

[22] = target: T21, MRCKalpha (Homo sapiens, UniProt Q5VT25)
T21 construct: purchased Millipore, Inc. (KinaseProfiler service)
Method: as §1

[23] = target: T22, Flt1 (Homo sapiens, UniProt P17948)
T22 construct: purchased Millipore, Inc. (KinaseProfiler service)
Method: as §1

[24] = target: T23, MLK1 (Homo sapiens, UniProt P80192)
T23 construct: purchased Millipore, Inc. (KinaseProfiler service)
Method: as §1

[25] = target: T24, MAP3K5 (Homo sapiens, UniProt Q99683)
T24 construct: purchased Millipore, Inc. (KinaseProfiler service)
Method: as §1

[26] = target: T25, CHK1 (Homo sapiens, UniProt O14757)
T25 construct: purchased Millipore, Inc. (KinaseProfiler service)
Method: as §1

[27] = target: T26, JAK2 (Homo sapiens, UniProt O60674)
T26 construct: purchased Millipore, Inc. (KinaseProfiler service)
Method: as §1

[28] = target: T27, CLK3 (Homo sapiens, UniProt P49761)
T27 construct: purchased Millipore, Inc. (KinaseProfiler service)
Method: as §1

[29] = target: T28, CK1gamma3 (Homo sapiens, UniProt Q9Y6M4)
T28 construct: purchased Millipore, Inc. (KinaseProfiler service)
Method: as §1

[30] = target: T29, RIPK2 (Homo sapiens, UniProt O43353)
T29 construct: purchased Millipore (KinaseProfiler service)
Method: as §1

[31] = target: T30, IGF-1R (Homo sapiens, UniProt P08069)
T30 construct: purchased Millipore, Inc. (KinaseProfiler service)
Method: as §1

[32] = target: T31, Abl (Homo sapiens, UniProt P00519)
T31 construct: purchased Millipore, Inc. (KinaseProfiler service)
Method: as §1

[33] = target: T32, PAK4 (Homo sapiens, UniProt O96013)
T32 construct: purchased Millipore, Inc. (KinaseProfiler service)
Method: as §1

[34] = target: T33, SRC (Homo sapiens, UniProt P12931)
T33 construct: purchased Millipore, Inc. (KinaseProfiler service)
Method: as §1

[35] = target: T34, Mer (Homo sapiens, UniProt Q12866)
T34 construct: purchased Millipore, Inc. (KinaseProfiler service)
Method: as §1

[36] = target: T35, CHK2 (Homo sapiens, UniProt O96017)
T35 construct: purchased Millipore, Inc. (KinaseProfiler service)
Method: as §1

[37] = target: T36, NEK11 (Homo sapiens, UniProt Q8NG66)
T36 construct: purchased Millipore, Inc. (KinaseProfiler service)
Method: as §1

[38] = target: T37, KDR (Homo sapiens, UniProt P35968)
T37 construct: purchased Millipore, Inc. (KinaseProfiler service)
Method: as §1

[39] = target: T38, TSSK1 (Homo sapiens, UniProt Q9BXA7)
T38 construct: purchased Millipore, Inc. (KinaseProfiler service)
Method: as §1

[40] = target: T39, PDGFRalpha (Homo sapiens, UniProt P16234)
T39 construct: purchased Millipore, Inc. (KinaseProfiler service)
Method: as §1

[41] = target: T40, MSK2 (Homo sapiens, UniProt O75676)
T40 construct: purchased Millipore, Inc. (KinaseProfiler service)
Method: as §1

[42] = target: T41, PASK (Homo sapiens, UniProt Q96RG2)
T41 construct: purchased Millipore, Inc. (KinaseProfiler service)
Method: as §1

T38 sequence (Q9BXA7 whole entry): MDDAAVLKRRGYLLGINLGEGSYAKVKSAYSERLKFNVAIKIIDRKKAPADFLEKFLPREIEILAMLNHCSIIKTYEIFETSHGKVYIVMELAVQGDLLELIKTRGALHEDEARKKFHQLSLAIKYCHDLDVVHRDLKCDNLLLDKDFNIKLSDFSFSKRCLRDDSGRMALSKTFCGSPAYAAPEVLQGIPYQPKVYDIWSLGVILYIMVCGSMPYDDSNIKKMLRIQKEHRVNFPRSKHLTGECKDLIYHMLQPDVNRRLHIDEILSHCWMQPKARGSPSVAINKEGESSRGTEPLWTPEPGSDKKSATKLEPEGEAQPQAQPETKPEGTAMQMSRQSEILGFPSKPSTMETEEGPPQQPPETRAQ
T14 sequence (Q04912 25-1400): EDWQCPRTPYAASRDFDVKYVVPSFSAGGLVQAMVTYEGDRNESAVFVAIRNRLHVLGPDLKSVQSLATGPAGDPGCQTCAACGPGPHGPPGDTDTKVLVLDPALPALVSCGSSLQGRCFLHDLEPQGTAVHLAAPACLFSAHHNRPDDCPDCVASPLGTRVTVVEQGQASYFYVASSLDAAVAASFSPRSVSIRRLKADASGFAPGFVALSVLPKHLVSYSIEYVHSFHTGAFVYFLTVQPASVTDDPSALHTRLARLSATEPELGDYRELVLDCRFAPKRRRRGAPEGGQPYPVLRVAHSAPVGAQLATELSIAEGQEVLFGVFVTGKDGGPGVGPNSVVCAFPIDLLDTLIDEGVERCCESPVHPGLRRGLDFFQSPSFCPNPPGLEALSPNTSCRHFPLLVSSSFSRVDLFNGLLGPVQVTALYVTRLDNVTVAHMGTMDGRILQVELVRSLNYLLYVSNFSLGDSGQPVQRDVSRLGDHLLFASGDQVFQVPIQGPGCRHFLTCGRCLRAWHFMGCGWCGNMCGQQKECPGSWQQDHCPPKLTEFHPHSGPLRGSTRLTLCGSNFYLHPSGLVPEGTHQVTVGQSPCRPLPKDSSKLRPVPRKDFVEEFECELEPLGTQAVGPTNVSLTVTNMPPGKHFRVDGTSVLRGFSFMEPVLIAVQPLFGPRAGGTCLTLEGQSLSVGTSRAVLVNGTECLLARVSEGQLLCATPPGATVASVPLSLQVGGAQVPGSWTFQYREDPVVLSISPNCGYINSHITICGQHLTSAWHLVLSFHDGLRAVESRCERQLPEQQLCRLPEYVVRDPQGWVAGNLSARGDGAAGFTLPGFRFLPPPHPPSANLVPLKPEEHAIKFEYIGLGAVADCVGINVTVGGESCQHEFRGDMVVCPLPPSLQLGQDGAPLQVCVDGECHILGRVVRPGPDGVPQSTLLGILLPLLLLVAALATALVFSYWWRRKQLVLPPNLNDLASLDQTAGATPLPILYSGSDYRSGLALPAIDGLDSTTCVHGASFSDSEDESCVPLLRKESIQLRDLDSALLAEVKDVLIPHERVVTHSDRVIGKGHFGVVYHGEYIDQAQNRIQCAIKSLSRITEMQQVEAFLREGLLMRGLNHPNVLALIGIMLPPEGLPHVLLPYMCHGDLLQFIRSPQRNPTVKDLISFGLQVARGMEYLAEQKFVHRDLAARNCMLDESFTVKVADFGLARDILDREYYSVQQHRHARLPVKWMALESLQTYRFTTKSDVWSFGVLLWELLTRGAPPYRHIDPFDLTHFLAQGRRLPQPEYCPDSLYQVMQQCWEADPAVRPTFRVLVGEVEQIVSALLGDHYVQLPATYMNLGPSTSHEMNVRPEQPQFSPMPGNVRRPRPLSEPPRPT
T21 sequence (Q5VT25 whole entry): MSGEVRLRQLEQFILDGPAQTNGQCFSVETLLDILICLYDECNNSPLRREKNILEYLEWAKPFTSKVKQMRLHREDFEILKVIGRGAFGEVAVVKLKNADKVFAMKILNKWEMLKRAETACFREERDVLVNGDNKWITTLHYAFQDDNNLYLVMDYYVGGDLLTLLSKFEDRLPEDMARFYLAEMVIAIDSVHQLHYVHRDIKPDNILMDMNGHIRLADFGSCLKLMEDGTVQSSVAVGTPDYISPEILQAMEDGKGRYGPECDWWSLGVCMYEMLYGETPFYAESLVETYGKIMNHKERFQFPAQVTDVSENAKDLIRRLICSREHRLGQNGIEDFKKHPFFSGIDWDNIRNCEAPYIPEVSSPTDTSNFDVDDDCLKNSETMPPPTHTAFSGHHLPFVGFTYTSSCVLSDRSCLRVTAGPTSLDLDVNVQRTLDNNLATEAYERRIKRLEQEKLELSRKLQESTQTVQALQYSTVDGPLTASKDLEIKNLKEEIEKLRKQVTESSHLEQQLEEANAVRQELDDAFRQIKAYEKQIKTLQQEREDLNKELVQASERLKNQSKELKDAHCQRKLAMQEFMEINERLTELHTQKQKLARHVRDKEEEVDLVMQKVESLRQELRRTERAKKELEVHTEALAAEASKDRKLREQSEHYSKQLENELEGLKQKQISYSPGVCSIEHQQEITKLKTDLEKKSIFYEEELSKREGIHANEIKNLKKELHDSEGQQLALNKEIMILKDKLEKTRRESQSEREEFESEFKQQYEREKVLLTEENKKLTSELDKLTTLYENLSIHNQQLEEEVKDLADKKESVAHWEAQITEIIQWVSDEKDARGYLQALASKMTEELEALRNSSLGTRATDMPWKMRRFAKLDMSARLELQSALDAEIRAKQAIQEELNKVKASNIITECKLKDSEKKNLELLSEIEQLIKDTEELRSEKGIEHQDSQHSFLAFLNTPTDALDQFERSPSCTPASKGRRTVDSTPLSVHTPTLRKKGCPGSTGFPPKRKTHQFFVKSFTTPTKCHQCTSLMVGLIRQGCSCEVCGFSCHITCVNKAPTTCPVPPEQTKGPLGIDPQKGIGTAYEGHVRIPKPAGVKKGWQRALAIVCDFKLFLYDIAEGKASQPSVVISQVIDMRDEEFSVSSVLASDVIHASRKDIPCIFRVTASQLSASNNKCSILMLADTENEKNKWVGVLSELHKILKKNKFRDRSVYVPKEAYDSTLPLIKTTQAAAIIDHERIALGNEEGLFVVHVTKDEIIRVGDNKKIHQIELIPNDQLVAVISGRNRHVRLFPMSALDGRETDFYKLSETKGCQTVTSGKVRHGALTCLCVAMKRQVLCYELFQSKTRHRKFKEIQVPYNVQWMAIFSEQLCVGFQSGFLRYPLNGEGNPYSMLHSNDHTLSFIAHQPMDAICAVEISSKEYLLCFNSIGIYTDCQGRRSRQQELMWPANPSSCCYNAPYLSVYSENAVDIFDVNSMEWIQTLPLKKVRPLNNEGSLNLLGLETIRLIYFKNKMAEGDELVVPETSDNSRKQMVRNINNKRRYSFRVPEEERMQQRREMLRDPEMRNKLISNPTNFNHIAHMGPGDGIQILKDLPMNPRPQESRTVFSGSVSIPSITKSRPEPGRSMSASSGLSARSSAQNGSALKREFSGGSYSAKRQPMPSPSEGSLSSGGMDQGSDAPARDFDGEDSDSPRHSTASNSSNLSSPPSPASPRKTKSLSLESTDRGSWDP
T10 sequence (Q9UEE5 whole entry): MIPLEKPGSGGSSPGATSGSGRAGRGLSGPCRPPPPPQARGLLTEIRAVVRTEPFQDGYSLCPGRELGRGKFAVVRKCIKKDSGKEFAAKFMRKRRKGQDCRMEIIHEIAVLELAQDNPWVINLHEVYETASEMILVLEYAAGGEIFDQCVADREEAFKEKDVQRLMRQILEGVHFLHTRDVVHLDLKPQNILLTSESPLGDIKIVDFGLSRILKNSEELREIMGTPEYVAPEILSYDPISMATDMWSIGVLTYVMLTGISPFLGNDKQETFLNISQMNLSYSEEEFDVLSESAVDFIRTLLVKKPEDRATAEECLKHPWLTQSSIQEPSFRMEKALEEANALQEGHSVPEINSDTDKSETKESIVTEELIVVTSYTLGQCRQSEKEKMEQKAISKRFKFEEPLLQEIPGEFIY
T9 sequence (P51812 whole entry): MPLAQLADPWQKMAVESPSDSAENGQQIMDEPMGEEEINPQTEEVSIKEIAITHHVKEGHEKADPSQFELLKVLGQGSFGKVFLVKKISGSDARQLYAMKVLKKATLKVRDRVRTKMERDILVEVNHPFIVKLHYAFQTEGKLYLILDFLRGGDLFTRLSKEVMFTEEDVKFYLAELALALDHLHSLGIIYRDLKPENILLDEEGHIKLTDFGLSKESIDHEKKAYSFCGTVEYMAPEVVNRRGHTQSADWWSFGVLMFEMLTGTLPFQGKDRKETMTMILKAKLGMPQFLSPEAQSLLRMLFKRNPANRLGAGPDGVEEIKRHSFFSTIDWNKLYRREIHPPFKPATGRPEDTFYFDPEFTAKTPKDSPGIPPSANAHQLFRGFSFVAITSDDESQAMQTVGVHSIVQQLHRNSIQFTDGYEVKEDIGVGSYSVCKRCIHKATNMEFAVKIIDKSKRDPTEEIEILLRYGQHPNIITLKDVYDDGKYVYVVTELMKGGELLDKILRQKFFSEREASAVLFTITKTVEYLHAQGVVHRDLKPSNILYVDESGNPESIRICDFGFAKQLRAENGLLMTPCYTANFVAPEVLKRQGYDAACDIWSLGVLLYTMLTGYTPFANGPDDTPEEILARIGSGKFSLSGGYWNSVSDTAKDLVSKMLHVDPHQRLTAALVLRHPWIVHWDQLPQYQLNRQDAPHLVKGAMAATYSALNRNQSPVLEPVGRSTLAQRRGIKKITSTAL
T19 sequence (P08069 959-1367 limits assumed): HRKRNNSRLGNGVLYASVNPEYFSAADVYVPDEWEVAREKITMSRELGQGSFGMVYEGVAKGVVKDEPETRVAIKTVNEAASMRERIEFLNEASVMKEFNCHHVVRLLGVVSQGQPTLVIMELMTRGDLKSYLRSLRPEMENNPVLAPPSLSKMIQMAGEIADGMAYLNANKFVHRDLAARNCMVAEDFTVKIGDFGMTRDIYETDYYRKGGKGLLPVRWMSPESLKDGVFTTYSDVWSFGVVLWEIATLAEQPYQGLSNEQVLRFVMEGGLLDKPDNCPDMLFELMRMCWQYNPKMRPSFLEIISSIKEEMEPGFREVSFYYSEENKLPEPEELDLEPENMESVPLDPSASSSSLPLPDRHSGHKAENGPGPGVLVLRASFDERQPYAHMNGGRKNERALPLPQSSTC

COCCN1C[C@@H](NC(=O)Nc2c(-c3ccccc3)nc3c(C)nccn23)[C@H](c2ccc(F)c(F)c2)C1 [Example 20, 1-((3S,4R)-4-(3,4-difluorophenyl)-1-(2-methoxyethyl)pyrrolidin-3-yl)-3-(8-methyl-2-phenylimidazo[1,2-a]pyrazin-3-yl)urea]
Avg. POC [1]: 106 POC | Avg. POC [2]: 99.5 POC | Avg. POC [3]: 108 POC | Avg. POC [4]: 103 POC | Avg. POC [5]: 118.5 POC | Avg. POC [6]: 104 POC | Avg. POC [7]: 110.5 POC | Avg. POC [8]: 106.5 POC | Avg. POC [9]: 112.5 POC | Avg. POC [10]: 110.5 POC | Avg. POC [11]: 107 POC | Avg. POC [12]: 118.5 POC | Avg. POC [13]: 108 POC | Avg. POC [14]: 119 POC | Avg. POC [15]: 100 POC | Avg. POC [16]: 106 POC | Avg. POC [17]: 99.5 POC | Avg. POC [18]: 110 POC | Avg. POC [19]: 108.5 POC | Avg. POC [20]: 100 POC | Avg. POC [21]: 104.5 POC | Avg. POC [22]: 101.5 POC | Avg. POC [23]: 100 POC | Avg. POC [24]: 100 POC | Avg. POC [25]: 88 POC | Avg. POC [26]: 103.5 POC | Avg. POC [27]: 117 POC | Avg. POC [28]: 107 POC | Avg. POC [29]: 112 POC | Avg. POC [30]: 97.5 POC | Avg. POC [31]: 73 POC | Avg. POC [32]: 114 POC | Avg. POC [33]: 97.5 POC | Avg. POC [34]: 107 POC | Avg. POC [35]: 116.5 POC | Avg. POC [36]: 138 POC | Avg. POC [37]: 109.5 POC | Avg. POC [38]: 107 POC | Avg. POC [39]: 107 POC | Avg. POC [40]: 105.5 POC | Avg. POC [41]: 126 POC | Avg. POC [42]: 111 POC
